Assay results from US7553864B2, “Compounds for the treatment of inflammatory disorders and microbial diseases” (Schering Corporation, priority 2005, dated 2009).

Each compound was assayed against T1, ADMP (ADAMTS-4-5) (Homo sapiens, UniProt O75173) (assay: ADMP activity assay (procedures of WO00/05256)). Settings: not given.
T1 construct: purchased Calbiochem PF113
T1 sequence (O75173 213-837): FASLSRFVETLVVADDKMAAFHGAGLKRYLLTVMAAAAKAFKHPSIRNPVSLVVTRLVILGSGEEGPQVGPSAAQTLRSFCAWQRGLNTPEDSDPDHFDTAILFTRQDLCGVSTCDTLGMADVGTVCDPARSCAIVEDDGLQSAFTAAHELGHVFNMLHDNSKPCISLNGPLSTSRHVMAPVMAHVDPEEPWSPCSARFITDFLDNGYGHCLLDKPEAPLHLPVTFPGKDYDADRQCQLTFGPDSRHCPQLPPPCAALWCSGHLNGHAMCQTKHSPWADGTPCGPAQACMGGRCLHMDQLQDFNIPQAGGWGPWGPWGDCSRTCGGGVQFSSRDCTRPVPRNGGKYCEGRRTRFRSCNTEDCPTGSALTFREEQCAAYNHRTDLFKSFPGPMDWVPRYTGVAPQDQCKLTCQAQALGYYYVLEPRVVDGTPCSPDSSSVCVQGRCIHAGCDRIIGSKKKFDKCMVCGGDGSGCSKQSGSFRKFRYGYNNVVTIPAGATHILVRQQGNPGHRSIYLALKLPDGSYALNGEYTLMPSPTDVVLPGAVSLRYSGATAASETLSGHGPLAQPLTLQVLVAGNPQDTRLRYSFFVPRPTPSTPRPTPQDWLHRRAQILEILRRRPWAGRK
Type: biochemical
Description: The procedures of International Patent Publication WO00/05256 (published Feb. 3, 2000) were followed for detection of ADMP Activity and for measuring the IC50 of the compounds of the present invention. This was indicative of activity against a desintgrin and metallopropeinase thrombo spondin 4 and 5 (ADAMTS-4-5).
The enzyme was purchased commercially from Calbiochem (Cat# PF113) and the peptide substrate described in the patent was custom-ordered from AnaSpec.

Row | Structure (SMILES) | IC50
1 | CC(=O)C1(c2ccccc2)CCN(C(=O)[C@H](O)[C@@H](O)C(=O)N[C@@H](C)c2ccc(Br)cc2)CC1 [Compound 133] | < 250 nM
2 | C[C@H](NC(=O)[C@H](O)[C@@H](O)C(=O)N1CCC(N2C(=O)Cc3ccccc32)CC1)c1ccc(Br)cc1 [Compound 165] | 1000 to 5000 nM

Same assay, conditions: read-out: IC50 (ADMP inhibition)

Row | Structure (SMILES) | IC50
3 | O=C(NCc1ccc(I)cc1)[C@H](O)[C@@H](O)C(=O)N1CCc2ccccc2C1 [Compound 204] | 90 nM
4 | C[C@H](NC(=O)[C@H](O)[C@@H](O)C(=O)N1Cc2ccccc2C[C@@H]1CO)c1ccc(Br)cc1 [Compound 138] | 190 nM
5 | C[C@H](NC(=O)[C@H](O)[C@@H](O)C(=O)N1CCC(Oc2ccccc2)CC1)c1ccc(Br)cc1 [Compound 149] | 90 nM
6 | COc1cc2c(cc1OC)CN(C(=O)[C@H](O)[C@@H](O)C(=O)N[C@@H](C)c1ccc(Br)cc1)CC2 [Compound 207] | 96 nM
7 | COc1ccc(N2CCN(C(=O)[C@H](O)[C@@H](O)C(=O)N[C@@H](C)c3ccc(Br)cc3)CC2)cc1 [Compound 130] | 170 nM
8 | C[C@H](NC(=O)[C@H](O)[C@@H](O)C(=O)N1CCCC1c1nc2ccccc2s1)c1ccc(Br)cc1 (stereo partly shown) [Compound 160] | 160 nM

Same assay, conditions: read-out: IC50 rating (ADMP inhibitory activity)

Row | Structure (SMILES) | IC50
9 | O=C(NCc1cccc(I)c1)C(O)C(O)C(=O)N1CCc2ccccc2C1 (stereo not shown) [Compound 212] | > 5000 nM
10 | CC(=O)c1ccc(N2CCN(C(=O)[C@H](O)[C@@H](O)C(=O)NCc3ccc(Cl)cc3)CC2)cc1 [Compound 118] | > 5000 nM
11 | C[C@@H](c1ccc(Br)cc1)N(C)C(=O)[C@@H](O)[C@H](O)C(=O)N1CCc2ccccc2C1 [Compound 187] | > 5000 nM
12 | O=C(NCc1ccc(I)cc1)[C@H](O)[C@@H](O)C(=O)N1CCc2ccccc2C1 [Compound 204] | < 250 nM
13 | N[C@@H]1CCN(C(=O)[C@H](O)[C@@H](O)C(=O)NCc2ccc(C(F)(F)F)cc2)C1 [Compound 123] | 1000 to 5000 nM
14 | C[C@H](NC(=O)[C@H](O)[C@@H](O)C(=O)N1CCc2ccccc2C1)c1ccc(-c2ccc(O)cc2)cc1 [Compound 200] | < 250 nM
15 | O=C(NCCCCCn1c(C(F)(F)F)nc2ccccc21)C(O)C(O)C(=O)N1CCc2ccccc2C1 (stereo not shown) [Compound 221] | > 5000 nM
16 | C[C@H](NC(=O)[C@H](O)[C@@H](O)C(=O)N1CCN(c2ccc(F)cc2F)CC1)c1ccc(Br)cc1 [Compound 144] | < 250 nM
17 | O=C(NCc1ccc(Br)cc1)[C@H](O)[C@@H](O)C(=O)N1CCc2ccccc2C1 [Compound 184] | 250 to 1000 nM
18 | CN1CCC(N(C)C(=O)[C@H](O)[C@@H](O)C(=O)NCc2ccc(C(F)(F)F)cc2)CC1 [Compound 122] | 250 to 1000 nM
19 | O=C(NCc1cccc(Br)c1)[C@@H](O)[C@H](O)C(=O)N1CCc2ccccc2C1 [Compound 185] | > 5000 nM
20 | Cc1ccc(N2CCN(C(=O)[C@H](O)[C@@H](O)C(=O)N[C@@H](C)c3ccc(Br)cc3)CC2)cc1C [Compound 142] | 250 to 1000 nM
21 | C[C@H](NC(=O)[C@H](O)[C@@H](O)C(=O)N1CCc2ccccc2C1)c1ccc(-c2cccc(N3CCCC3)c2)cc1 [Compound 196] | < 250 nM
22 | O=C(NCc1cccc(Br)c1)C(O)C(O)C(=O)N1CCc2ccccc2C1 (stereo not shown) [Compound 211] | > 5000 nM
23 | C[C@H](NC(=O)C(O)C(O)C(=O)N1Cc2ccccc2C1)c1cccc(O)c1 (stereo partly shown) [Compound 217] | 1000 to 5000 nM
24 | C[C@H](NC(=O)[C@H](O)[C@@H](O)C(=O)N[C@@H]1c2ccccc2C[C@@H]1O)c1ccc(Br)cc1 [Compound 173] | > 5000 nM
25 | C[C@H](NC(=O)[C@H](O)[C@@H](O)C(=O)N1Cc2ccccc2C[C@@H]1CO)c1ccc(Br)cc1 [Compound 138] | < 250 nM
26 | CN(Cc1ccccc1)C(=O)[C@H](O)[C@@H](O)C(=O)NCc1ccc(Cl)cc1 [Compound 110] | 250 to 1000 nM
27 | C[C@H](NC(=O)C(O)C(O)C(=O)N1CCc2ccccc2C1)c1ccc(C(F)(F)F)cc1F (stereo partly shown) [Compound 220] | > 5000 nM
28 | C[C@H](NC(=O)[C@H](O)[C@@H](O)C(=O)N1CCC(Oc2ccccc2)CC1)c1ccc(Br)cc1 [Compound 149] | < 250 nM
29 | CN1CCC(N(C)C(=O)[C@@H](O)[C@H](O)C(=O)NCc2ccc(I)cc2)CC1 [Compound 189] | > 5000 nM

Row | Structure (SMILES) | IC50
30 | C[C@H](NC(=O)[C@H](O)[C@@H](O)C(=O)N(C)C1CCN(C)CC1)c1ccc(Br)cc1 [Compound 121] | 1000 to 5000 nM
31 | CC(NC(=O)[C@H](O)[C@@H](O)C(=O)N1CCc2ccccc2C1)c1ccc(C(F)(F)F)cc1 (stereo partly shown) [Compound 201] | 250 to 1000 nM
32 | COc1cc2c(cc1OC)CN(C(=O)[C@H](O)[C@@H](O)C(=O)N[C@@H](C)c1ccc(Br)cc1)CC2 [Compound 207] | < 250 nM
33 | O=C(NCc1cccc(I)c1)[C@H](O)[C@@H](O)C(=O)N1CCc2ccccc2C1 [Compound 181] | > 5000 nM
34 | CN(CCc1ccccn1)C(=O)[C@H](O)[C@@H](O)C(=O)NCc1ccc(Cl)cc1 [Compound 113] | 250 to 1000 nM
35 | C[C@H](NC(=O)[C@H](O)[C@@H](O)C(=O)N(C)CCc1ccccc1)c1ccc(Br)cc1 [Compound 176] | 250 to 1000 nM
36 | C[C@H](NC(=O)[C@H](O)[C@@H](O)C(=O)N1CCC(c2nc3ccccc3s2)CC1)c1ccc(Br)cc1 [Compound 151] | < 250 nM
37 | C[C@H](NC(=O)C(O)C(O)C(=O)N1Cc2ccccc2C1)c1ccc(O)cc1 (stereo partly shown) [Compound 216] | < 250 nM
38 | COc1ccc(N2CCN(C(=O)[C@H](O)[C@@H](O)C(=O)N[C@@H](C)c3ccc(Br)cc3)CC2)cc1 [Compound 130] | < 250 nM
39 | CC(NC(=O)[C@H](O)[C@@H](O)C(=O)N1CCc2ccccc2C1)c1ccc(S(C)(=O)=O)cc1 (stereo partly shown) [Compound 186] | > 5000 nM
40 | C[C@H](NC(=O)[C@H](O)[C@@H](O)C(=O)N1CCCC1c1cccc(Cl)c1)c1ccc(Br)cc1 (stereo partly shown) [Compound 209] | < 250 nM
41 | C[C@H](NC(=O)[C@H](O)[C@@H](O)C(=O)N1CCc2ccccc2C1)c1ccc(Br)cc1 [Compound 114] | < 250 nM
42 | O=C(NCc1ccc(C(F)(F)F)cc1)[C@H](O)[C@@H](O)C(=O)N1CCN(c2cccc(Cl)c2)CC1 [Compound 111] | 250 to 1000 nM
43 | C[C@H](NC(=O)[C@H](O)[C@@H](O)C(=O)N1CCCC1c1nc2ccccc2s1)c1ccc(Br)cc1 (stereo partly shown) [Compound 160] | < 250 nM
44 | COc1ccc(N2CCN(C(=O)[C@H](O)[C@@H](O)C(=O)NCc3ccc(Cl)cc3)CC2)cc1 [Compound 132] | 250 to 1000 nM
45 | O=C(NCc1ccc(C(F)(F)F)cc1)[C@H](O)[C@@H](O)C(=O)N1CCN(c2ccc(F)cc2)CC1 [Compound 126] | 250 to 1000 nM
46 | C[C@H](NC(=O)C(O)C(O)C(=O)N1CCc2ccccc2C1)c1cccc(Br)c1 (stereo partly shown) [Compound 218] | > 5000 nM
47 | C[C@H](NC(=O)[C@H](O)[C@@H](O)C(=O)N1CCCC1c1ccccc1)c1ccc(Br)cc1 (stereo partly shown) [Compound 172] | 250 to 1000 nM
48 | C[C@H](NC(=O)C(O)C(O)C(=O)N1CCN(c2ccc(O)cc2)CC1)c1ccc(Br)cc1 (stereo partly shown) [Compound 215] | 1000 to 5000 nM
49 | C[C@H](NC(=O)[C@H](O)[C@@H](O)C(=O)N(C)C1Cc2ccccc2C1)c1ccc(Br)cc1 [Compound 206] | 250 to 1000 nM
